In ChEMBL document CHEMBL4837265 (ACS Med Chem Lett, 2021):
Active and inactive are the calls of the source. No cut-off for these calls is given here.

Tests used:
Assay type in all cases: cell-based
[1] = target: T1, Glucocorticoid receptor (Rattus norvegicus) (UniProt P06536); assay: Agonist activity at glucocorticoid receptor in rat INS-1 832/13 cells assessed as inhibition of glucose-stimulated insulin secretion at 100 nM incubated for 18 hrs by ELISA
T1 sequence (whole entry): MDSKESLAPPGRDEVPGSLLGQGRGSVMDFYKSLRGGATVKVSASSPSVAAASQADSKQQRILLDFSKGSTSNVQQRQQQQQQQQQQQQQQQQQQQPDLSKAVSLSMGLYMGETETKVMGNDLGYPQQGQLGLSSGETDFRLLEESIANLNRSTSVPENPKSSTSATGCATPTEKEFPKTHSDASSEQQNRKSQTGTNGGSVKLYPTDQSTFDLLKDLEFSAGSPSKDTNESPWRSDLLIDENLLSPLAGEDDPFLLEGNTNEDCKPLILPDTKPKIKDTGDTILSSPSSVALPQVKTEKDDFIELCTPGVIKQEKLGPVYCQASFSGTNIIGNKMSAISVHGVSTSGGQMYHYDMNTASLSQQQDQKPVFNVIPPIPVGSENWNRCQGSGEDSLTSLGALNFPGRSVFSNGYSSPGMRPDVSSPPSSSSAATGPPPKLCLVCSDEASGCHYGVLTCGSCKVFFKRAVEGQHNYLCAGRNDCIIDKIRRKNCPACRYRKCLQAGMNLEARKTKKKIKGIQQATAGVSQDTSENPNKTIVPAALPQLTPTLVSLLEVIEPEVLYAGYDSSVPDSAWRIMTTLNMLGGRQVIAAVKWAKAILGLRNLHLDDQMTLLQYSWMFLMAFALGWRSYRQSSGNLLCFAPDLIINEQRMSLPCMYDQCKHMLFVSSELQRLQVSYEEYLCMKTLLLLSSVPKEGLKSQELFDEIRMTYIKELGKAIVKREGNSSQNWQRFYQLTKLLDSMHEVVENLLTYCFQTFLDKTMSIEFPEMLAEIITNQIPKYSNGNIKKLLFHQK

Glucocorticoid receptor [2] = target: T2, Glucocorticoid receptor (Rattus norvegicus, UniProt P06536); assay: Agonist activity at glucocorticoid receptor in rat INS-1 832/13 cells transfected with 3XGRE-promoter luciferase plasmid construct assessed as induction of receptor transactivation by luciferase reporter gene assay
T2 sequence (P06536 whole entry): T1 sequence (whole entry)

Glucocorticoid receptor [3] = target: T2, Glucocorticoid receptor; assay: Agonist activity at glucocorticoid receptor in rat INS-1 832/13 cells transfected with CCL2-promoter luciferase plasmid construct assessed as reduction in IL-1 beta induced inflammation by luciferase reporter gene assay

Structure (SMILES)	inhibition [1]	EC50 (Glucocorticoid receptor [2])	IC50 (Glucocorticoid receptor [3])	inhibition ([1]; filed as agonist)
C[C@H](O)[C@H]1CCCC2=Cc3c(cnn3-c3ccc(F)cc3)C[C@@]21C	inactive	63.1 nM	6.31 nM	
Cc1ccc(-n2ncc3c2C=C2CCC[C@H](C(C)(O)c4ccsc4)[C@@]2(C)C3)cc1 (single isomer, unassigned)		1580 nM	100 nM	
COc1ccc(-n2ncc3c2C=C2CCC[C@H]([C@@H](O)c4ccccc4)[C@@]2(C)C3)cc1		10000 nM	1260 nM	
Cc1ccc(-n2ncc3c2C=C2CCC[C@H]([C@@H](O)c4ccc(F)cc4)[C@@]2(C)C3)cc1		31600 nM	251 nM	
COc1ccc(-n2ncc3c2C=C2CCC[C@H](C(C)(O)c4cc(F)c(F)c(OC)c4)[C@@]2(C)C3)cc1 (single isomer, unassigned)		10000 nM	1260 nM	
COc1cc([C@H](O)[C@H]2CCCC3=Cc4c(cnn4-c4ccc(C)cc4)C[C@@]32C)cc(F)c1F		100000 nM	158 nM	
Cc1ccc(-n2ncc3c2C=C2CCC[C@H](C(C)(C)O)[C@@]2(C)C3)cc1		0.398 nM	63.1 nM	
C[C@]12Cc3cnn(-c4ccc(F)cc4)c3C=C1CCC[C@@H]2[C@@H](O)c1ccsc1		126 nM	5.01 nM	
COc1ccc(-n2ncc3c2C=C2CCC[C@H](C(C)(O)c4ccccc4)[C@@]2(C)C3)cc1 (single isomer, unassigned)		5010 nM	501 nM	
CC(C)(O)[C@H]1CCCC2=Cc3c(cnn3-c3ccc(F)cc3)C[C@@]21C	inactive	63.1 nM	39.8 nM	
C[C@]12Cc3cnn(-c4ccc(F)cc4)c3C=C1CCC[C@@H]2[C@@H](O)CC#N		2510 nM	1580 nM	
COc1cc([C@H](O)[C@H]2CCCC3=Cc4c(cnn4-c4ccc(F)cc4)C[C@@]32C)cc(F)c1F		63.1 nM	15.8 nM	
COc1cc([C@@](C)(O)[C@H]2CCCC3=Cc4c(cnn4-c4ccc(F)cc4)C[C@@]32C)cc(F)c1F		6.31 nM	2 nM	
COc1ccc(-n2ncc3c2C=C2CCC[C@H](C(C)(O)c4ccc(F)cc4)[C@@]2(C)C3)cc1 (single isomer, unassigned)		126 nM	251 nM	
C[C@]12Cc3cnn(-c4ccc(F)cc4)c3C=C1CCC[C@@H]2[C@](C)(O)c1ccc(F)cc1		15.8 nM	5.01 nM	
Cc1ccc(-n2ncc3c2C=C2CCC[C@H]([C@H](C)O)[C@@]2(C)C3)cc1		1580 nM	0.2 nM	
COc1ccc(-n2ncc3c2C=C2CCC[C@H]([C@@H](O)c4ccc(F)cc4)[C@@]2(C)C3)cc1		15800 nM	79.4 nM	
Cc1ccc(-n2ncc3c2C=C2CCC[C@H](C(C)(O)c4ccccc4)[C@@]2(C)C3)cc1 (single isomer, unassigned)		1260 nM	31.6 nM	
COc1ccc(-n2ncc3c2C=C2CCC[C@H](C(C)(O)c4ccsc4)[C@@]2(C)C3)cc1 (single isomer, unassigned)		10000 nM	1580 nM	
C[C@]12Cc3cnn(-c4ccc(F)cc4)c3C=C1CCC[C@@H]2[C@@H](O)c1ccccc1	inactive	100 nM	39.8 nM	
COc1ccc(-n2ncc3c2C=C2CCC[C@H]([C@@H](O)c4ccsc4)[C@@]2(C)C3)cc1		10000 nM	501 nM	
Cc1ccc(-n2ncc3c2C=C2CCC[C@H](C(C)(O)c4ccc(F)cc4)[C@@]2(C)C3)cc1 (single isomer, unassigned)		316 nM	631 nM	
Cc1ccc(-n2ncc3c2C=C2CCC[C@H]([C@@H](O)c4ccsc4)[C@@]2(C)C3)cc1		10000 nM	39.8 nM	
COc1ccc(-n2ncc3c2C=C2CCC[C@H](C(C)(C)O)[C@@]2(C)C3)cc1		79.4 nM	2510 nM	
CC(C)(C)[C@H](O)[C@H]1CCCC2=Cc3c(cnn3-c3ccc(F)cc3)C[C@@]21C		794 nM	0.251 nM	
COc1ccc(-n2ncc3c2C=C2CCC[C@H]([C@H](C)O)[C@@]2(C)C3)cc1		251 nM	0.158 nM	
C[C@]12Cc3cnn(-c4ccc(F)cc4)c3C=C1CCC[C@@H]2[C@](C)(O)c1ccccc1		3.98 nM	7.94 nM	Active
Cc1ccc(-n2ncc3c2C=C2CCC[C@H]([C@@H](O)c4ccccc4)[C@@]2(C)C3)cc1		10000 nM	398 nM	
